This note sets out measurements from US9133148B2, “Carbamate compounds and of making and using same” (Abide Therapeutics, Inc., priority 2012, dated 2015).

Usually IC50 stands for the concentration needed to halve the response being measured. High values mean weaker potency in that assay, low ones greater potency in that assay.

Common to all, as to format: biochemical
The target in assay [1] is FAAH (Mus musculus (Mouse), UniProt O08914). The experiment in a line: In vitro competitive activity-based protein profiling (FP-Rh), mouse FAAH. The following applies: mouse brain membrane proteome. The method, then: (§1) In Vitro Competitive Activity-Based Protein Profiling.
Sequence of FAAH (O08914 whole entry): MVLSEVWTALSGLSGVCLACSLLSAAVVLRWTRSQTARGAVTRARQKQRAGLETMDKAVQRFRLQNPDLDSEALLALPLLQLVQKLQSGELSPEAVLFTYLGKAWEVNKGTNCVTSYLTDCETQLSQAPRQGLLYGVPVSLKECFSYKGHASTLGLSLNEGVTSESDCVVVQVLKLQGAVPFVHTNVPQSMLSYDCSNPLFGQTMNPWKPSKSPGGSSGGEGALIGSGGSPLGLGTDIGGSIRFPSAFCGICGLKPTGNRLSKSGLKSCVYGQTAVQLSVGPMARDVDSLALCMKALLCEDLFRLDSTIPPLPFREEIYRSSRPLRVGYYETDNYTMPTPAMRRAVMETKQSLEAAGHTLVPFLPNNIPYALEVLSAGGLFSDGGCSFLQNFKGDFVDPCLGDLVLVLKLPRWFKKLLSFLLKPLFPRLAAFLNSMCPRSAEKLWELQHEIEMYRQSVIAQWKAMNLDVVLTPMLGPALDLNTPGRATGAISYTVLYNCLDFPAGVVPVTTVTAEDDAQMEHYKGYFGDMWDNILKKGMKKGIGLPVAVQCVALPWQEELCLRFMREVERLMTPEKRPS
(§2) Proteomes (mouse brain membrane fraction or cell lysates) ([…], 1.0 mg/mL total protein concentration) were preincubated with varying concentrations of inhibitors at 37° C. After 30 min, FP-Rh (1.0 μL, 50 μM in DMSO) was added and the mixture was incubated for another 30 min at 37° C. Reactions were quenched with SDS loading buffer (50 μL—4×) and run on SDS-PAGE.

For assay [2], the target named is ABHD6 (Mus musculus (Mouse), UniProt Q8R2Y0). The assay is described as follows: In vitro competitive activity-based protein profiling (FP-Rh), mouse ABHD6. The conditions noted are these: mouse brain membrane proteome. The protocol:
as §1, §2

Assay [3] concerns the target MAGL (Mus musculus (Mouse), UniProt O35678). The assay is described as follows: In vitro competitive activity-based protein profiling (FP-Rh), mouse MAGL. The conditions noted are these: mouse brain membrane proteome, competitive ABPP (Table 7). The method, then:
as §1, §2

Sequence of ABHD6 (Q8R2Y0 whole entry): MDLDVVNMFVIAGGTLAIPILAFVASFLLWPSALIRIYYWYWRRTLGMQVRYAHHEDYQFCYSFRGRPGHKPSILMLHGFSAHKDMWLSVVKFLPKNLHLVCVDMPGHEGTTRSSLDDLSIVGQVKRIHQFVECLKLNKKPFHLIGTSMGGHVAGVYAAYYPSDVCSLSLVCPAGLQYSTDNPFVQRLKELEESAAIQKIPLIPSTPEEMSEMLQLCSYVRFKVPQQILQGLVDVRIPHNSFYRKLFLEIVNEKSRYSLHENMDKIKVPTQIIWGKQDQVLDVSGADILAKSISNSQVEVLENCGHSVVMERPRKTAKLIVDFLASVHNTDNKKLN
Sequence of MAGL (O35678 whole entry): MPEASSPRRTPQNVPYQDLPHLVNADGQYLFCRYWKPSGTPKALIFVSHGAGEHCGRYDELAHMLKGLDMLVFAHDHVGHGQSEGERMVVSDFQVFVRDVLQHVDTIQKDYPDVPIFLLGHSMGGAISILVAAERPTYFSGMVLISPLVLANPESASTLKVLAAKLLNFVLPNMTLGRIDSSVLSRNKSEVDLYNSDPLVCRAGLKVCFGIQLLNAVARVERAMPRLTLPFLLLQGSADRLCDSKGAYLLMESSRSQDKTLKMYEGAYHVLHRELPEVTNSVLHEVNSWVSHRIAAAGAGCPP

On to `O=C(Oc1ccc([N+](=O)[O-])cc1)N1CCC(C(O)(c2ccc3c(c2)OCO3)c2ccc3c(c2)OCO3)CC1` [A, 4-nitrophenyl 4-(dibenzo[d][1,3]dioxol-5-yl(hydroxy)methyl)piperidine-1-carboxylate, reference compound], for which the results for the IC50 in assay [1] (competitive ABPP) and in assay [2] (competitive ABPP) were 4700 nM and 100 to 1000 nM, respectively.

Regarding `O=C(OC(C(F)(F)F)C(F)(F)F)N1CCN(Cc2cc(Cl)ccc2N2CCOCC2)CC1` [Example 9ag, 1,1,1,3,3,3-hexafluoropropan-2-yl 4-[[5-chloro-2-(morpholin-4-yl)phenyl]methyl]piperazine-1-carboxylate], the IC50 in assay [1] (competitive ABPP (Table 7)) was > 10000 nM; in assay [2] (competitive ABPP (Table 7)), > 1000 nM.

Turning to `O=C(OC(C(F)(F)F)C(F)(F)F)N1CCN(Cc2ccc(Br)cc2N2CCCC2)CC1` [Example 9x, 1,1,1,3,3,3-hexafluoropropan-2-yl 4-(4-bromo-2-(pyrrolidin-1-yl)benzyl)piperazine-1-carboxylate], the IC50 in assay [1] (competitive ABPP (Table 7)) was > 250 nM.

For `O=C(OC(C(F)(F)F)C(F)(F)F)N1CCN(C(c2cocn2)c2cocn2)CC1` [Example 2i, 1,1,1,3,3,3-hexafluoropropan-2-yl 4-(bis(oxazol-4-yl)methyl)piperazine-1-carboxylate], the IC50 in assay [1] (competitive ABPP) was > 6000 nM.

Take `Cn1ncc(Br)c1CN1CCN(C(=O)OC(C(F)(F)F)C(F)(F)F)CC1` [Example 10f, 1,1,1,3,3,3-hexafluoropropan-2-yl 4-((4-bromo-1-methyl-1H-pyrazol-5-yl)methyl)piperazine-1-carboxylate]: the IC50 in assay [3] was 100 to 1000 nM.

Consider `Cn1nc(-c2ccccc2)cc1CN1CCN(C(=O)OC(C(F)(F)F)C(F)(F)F)CC1` [Example 10d, 1,1,1,3,3,3-hexafluoropropan-2-yl 4-((1-methyl-3-phenyl-1H-pyrazol-5-yl)methyl)piperazine-1-carboxylate], for which the IC50 in assay [1] (competitive ABPP (Table 7)) was > 10000 nM.

Regarding `Cn1cc(CN2CCN(C(=O)OC(C(F)(F)F)C(F)(F)F)CC2)c(-c2ccccc2)n1` [Example 10e, 1,1,1,3,3,3-hexafluoropropan-2-yl 4-((1-methyl-3-phenyl-1H-pyrazol-4-yl)methyl)piperazine-1-carboxylate], the IC50 in assay [1] (competitive ABPP (Table 7)) is > 10000 nM.

For the molecule `Cc1nn(-c2ccccc2)cc1CN1CCN(C(=O)OC(C(F)(F)F)C(F)(F)F)CC1` [Example 10c, 1,1,1,3,3,3-hexafluoropropan-2-yl 4-((3-methyl-1-phenyl-1H-pyrazol-4-yl)methyl)piperazine-1-carboxylate], the IC50 in assay [1] (competitive ABPP (Table 7)) was > 6250 nM.

For `O=C(OC(C(F)(F)F)C(F)(F)F)N1CCN(Cc2ccccc2N2CCOCC2)CC1` [Example 9y, 1,1,1,3,3,3-hexafluoropropan-2-yl 4-(2-morpholinobenzyl)piperazine-1-carboxylate], the IC50 in assay [1] (competitive ABPP (Table 7)) is > 250 nM; in assay [3], < 100 nM.

On to `O=C(OC(C(F)(F)F)C(F)(F)F)N1CCN(Cc2ccc(Cl)cc2N2CCOCC2)CC1` [Example 9t, 1,1,1,3,3,3-hexafluoropropan-2-yl 4-(4-chloro-2-morpholinobenzyl)piperazine-1-carboxylate], for which the 50% inhibitory concentration (IC50) in assay [1] (competitive ABPP (Table 7)) is > 6250 nM.

Consider `Cc1cc(Cl)ccc1C(c1ccc(Cl)cc1C)N1CCN(C(=O)OC(C(F)(F)F)C(F)(F)F)CC1` [Example 2j, 1,1,1,3,3,3-hexafluoropropan-2-yl 4-(bis(4-chloro-2-methylphenyl)methyl)piperazine-1-carboxylate], for which the IC50 is > 10000 nM in assay [1] (competitive ABPP) and > 1000 nM in assay [2] (competitive ABPP).

Take `O=C(OC(C(F)(F)F)C(F)(F)F)N1CCN(Cc2cccc(Cl)c2N2CCOCC2)CC1` [Example 9ad, 1,1,1,3,3,3-hexafluoropropan-2-yl 4-[[3-chloro-2-(morpholin-4-yl)phenyl]methyl]piperazine-1-carboxylate]: the IC50 in assay [1] (competitive ABPP (Table 7)) was > 10000 nM.

For `O=C(OC(C(F)(F)F)C(F)(F)F)N1CCN(Cc2ccc(C(F)(F)F)cc2N2CCOCC2)CC1` [Example 9c, 1,1,1,3,3,3-hexafluoropropan-2-yl 4-[[2-(morpholin-4-yl)-4-(trifluoromethyl)phenyl]methyl]piperazine-1-carboxylate], the IC50 in assay [1] (competitive ABPP (Table 7)) is > 10000 nM.

In turn, `O=C(OC(C(F)(F)F)C(F)(F)F)N1CCN(Cc2ccc(Br)cc2N2CCCCC2)CC1` [Example 9q, 1,1,1,3,3,3-hexafluoropropan-2-yl 4-(4-bromo-2-(piperidin-1-yl)benzyl)piperazine-1-carboxylate] gave an IC50 in assay [3] of 100 to 1000 nM.

For the molecule `O=C(OC(C(F)(F)F)C(F)(F)F)N1CCN(Cc2ccc(Cl)cc2N2CCCC2)CC1` [Example 9z, 1,1,1,3,3,3-hexafluoropropan-2-yl 4-(4-chloro-2-(pyrrolidin-1-yl)benzyl)piperazine-1-carboxylate], in assay [1] (competitive ABPP (Table 7)), the IC50 is > 10000 nM.

For the molecule `Cc1cc(N2CCOCC2)ccc1CN1CCN(C(=O)OC(C(F)(F)F)C(F)(F)F)CC1` [Example 9p, 1,1,1,3,3,3-hexafluoropropan-2-yl 4-(2-methyl-4-morpholinobenzyl)piperazine-1-carboxylate], the IC50 in assay [3] is < 100 nM.

Consider `O=C(OC(C(F)(F)F)C(F)(F)F)N1CCN(Cc2cc(-c3ccccc3)on2)CC1` [Example 10b, 1,1,1,3,3,3-hexafluoropropan-2-yl 4-((5-phenylisoxazol-3-yl)methyl)piperazine-1-carboxylate], for which the IC50 in assay [3] was in the range of 100 to 1000 nM.

As for `CN(Cc1cccc(-c2ccncc2)c1)C(=O)OC(C(F)(F)F)C(F)(F)F` [Example 3f, 1,1,1,3,3,3-hexafluoropropan-2-yl methyl(3-(pyridin-4-yl)benzyl)-carbamate], the values for the IC50 in assay [1] (competitive ABPP) and in assay [2] (competitive ABPP) were > 10000 nM and 100 to 1000 nM, respectively.

As for `O=C(OC(C(F)(F)F)C(F)(F)F)N1CCN(Cc2ccc(-c3ccccc3)cc2N2CCOCC2)CC1` [Example 11f, 1,1,1,3,3,3-hexafluoropropan-2-yl 4-((3-morpholino-[1,1′-biphenyl]-4-yl)methyl)piperazine-1-carboxylate], the IC50 in assay [3] was > 1000 nM.

`Cn1cc(CN2CCN(C(=O)OC(C(F)(F)F)C(F)(F)F)CC2)c(-c2ccccc2Cl)n1` [l0g, 1,1,1,3,3,3-hexafluoropropan-2-yl 4-[[3-(2-chlorophenyl)-1-methyl-1H-pyrazol-4-yl]methyl]piperazine-1-carboxylate]: the IC50 in assay [1] (competitive ABPP (Table 7)) was > 10000 nM.

With `O=C(OC(C(F)(F)F)C(F)(F)F)N1CCN(Cc2ccc(C(F)(F)F)cc2N2CCCC2)CC1` [Example 9aq, 1,1,1,3,3,3-hexafluoropropan-2-yl 4-(2-(pyrrolidin-1-yl)-4-(trifluoromethyl)benzyl)piperazine-1-carboxylate], the IC50 in assay [1] (competitive ABPP (Table 7)) was > 10000 nM.

Regarding `O=C(OC(C(F)(F)F)C(F)(F)F)N1CCN(Cc2ccc(Br)cc2N2CCOCC2)CC1` [Example 9r, 1,1,1,3,3,3-hexafluoropropan-2-yl 4-(4-bromo-2-morpholinobenzyl)piperazine-1-carboxylate], in assay [3], the IC50 is < 100 nM.

Consider `O=C(OC(C(F)(F)F)C(F)(F)F)N1CCN(C(c2cccnc2)c2cccnc2)CC1` [Example 2l, 1,1,1,3,3,3-hexafluoropropan-2-yl 4-(di(pyridin-3-yl)methyl)piperazine-1-carboxylate], for which, in assay [1] (competitive ABPP), the IC50 was > 10000 nM.

In the case of `O=C(OC(C(F)(F)F)C(F)(F)F)N1CCN(C(c2ccc(Cl)cc2)c2ccc(Cl)cc2)CC1` [Example 2b, 1,1,1,3,3,3-hexafluoropropan-2-yl 4-(bis(4-chlorophenyl)methyl)-piperazine-1-carboxylate], the IC50 in assay [1] (competitive ABPP) is > 10000 nM.
